US12304909B2, “Compounds and their use in therapy” (IMPERIAL COLLEGE INNOVATIONS LIMITED, priority 2018, dated 2025)
Values joined by “and” are separate entries in the source; they are usually repeats but may differ in a detail not shown here. Identical values can stand only once. Like-named read-outs stand apart in the source and are kept apart here.

Legend:
MDA MB 231 cells = assay: CellTiter-Blue assay, MDA MB 231; type: cell-based, human
Method: (§1) Example NMT inhibitors of the present invention were tested for activity in in vitro CellTiter-Blue® assays using the human cell line MDA MB 231, LY 12318, or BL-41. Comparative Examples 1 and 2 were also tested in the same assays. Compounds having activity in inhibiting metabolic activity in the assay are expected to be useful as agents for preventing and/or treating cancer, by virtue of being inhibitors of human NMT1 and/or NMT2.
(§2) MDA MB 231 cells (obtained from Professor Eric Aboagye, Hammersmith Hospital; cell type: triple negative breast cancer) were grown in low glucose DMEM in 5% CO2 media (supplemented with 10% FBS); LY 12318 cells (obtained from Dr Martin Janz, Max Delbrueck Center; cell type: B cell lymphoma patient derived xenograft) were grown in DMEM media (supplemented with 10% FBS); and BL-41 cells (obtained from Cell Services at the Crick Institute; cell type: Burkitt's Lymphoma) were grown in RPMI-1640 media in 5% CO2 (supplemented with 10% FBS). The MDA MB 231 cells, LY 12318 cells or BL-41 cells were seeded in 96-well plates, 24 h prior to treatment. Cell suspensions were prepared by adjusting the cell density to the appropriate concentration (as stated in the Table 2 below) and 50 μL of the cell suspension was transferred to wells B-G in columns 2-11 of a 96-well plate.
(§3) Twenty-four hours later, 50 μl of growth media (low glucose DMEM in 5% CO2 media supplemented with 10% FBS for MDA MB 231 cells; DMEM media in 5% CO2 supplemented with 10% FBS for LY 12318 cells; or RPMI-1640 media supplemented with 10% FBS for BL-41 cells) containing 0.0004% DMSO (positive control), a mix of Puromycin and Staurosporine (negative controls, final concentration 2 μg/mL and 1 μM respectively) or different concentrations of each Example (Example 1 and 2) or each Comparative Example (Comparative Example 1 and 2) (dilution factor=3, starting at […], final concentration in the plate starting from 10 μM) were prepared and added to a well of the 96-well plate. The plate was incubated at 37° C. with 5% CO2 level.
(§4) 72 hours later, 20 μl/well CellTiter-Blue® (G8081, Promega) were added to the plates according to the manufacturer's protocol, the plate was incubated at 37° C. for 4 h for MDA MB 231 cells and BL-41 cells, or 3 h for LY 12318 cells, followed by measuring the absorbance per well at 570 nm using an EnVision plate reader. The negative control values were subtracted from every value. The metabolic activity was calculated as a percentage relative to the positive control. The EC50 values were calculated using GraphPad Prism.

LY 12318 cells = assay: CellTiter-Blue assay, LY 12318; type: cell-based, human; conditions: 72 h, read-out: LY12318 EC50
Method: as §1, §2, §3, §4

human NMT1 (HsNMT1) = target: T1, human NMT1 (HsNMT1) (Homo sapiens, UniProt P30419); assay: HsNMT1 IC50, fluorescence-based assay detecting CoA with CPM; type: biochemical
T1 sequence (P30419 1-496): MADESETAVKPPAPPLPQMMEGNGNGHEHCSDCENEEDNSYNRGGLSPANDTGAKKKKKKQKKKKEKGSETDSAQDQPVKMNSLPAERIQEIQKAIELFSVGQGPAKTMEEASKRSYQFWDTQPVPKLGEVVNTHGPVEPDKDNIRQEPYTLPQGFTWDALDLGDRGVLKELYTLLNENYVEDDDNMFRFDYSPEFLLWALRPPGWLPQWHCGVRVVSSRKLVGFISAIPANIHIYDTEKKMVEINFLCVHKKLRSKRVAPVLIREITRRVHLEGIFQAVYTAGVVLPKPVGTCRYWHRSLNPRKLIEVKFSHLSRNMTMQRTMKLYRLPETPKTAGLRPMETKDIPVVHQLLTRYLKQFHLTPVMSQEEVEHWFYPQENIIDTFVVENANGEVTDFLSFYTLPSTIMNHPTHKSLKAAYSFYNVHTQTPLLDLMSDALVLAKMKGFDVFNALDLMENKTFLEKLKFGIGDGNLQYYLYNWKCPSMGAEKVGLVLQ
Method: The IC50 values for human NMT1 (HsNMT1) of four Example compounds of the invention described above (Examples 1-4) and six comparative examples (Comparative Examples 1, 2, 3, 4, 5 and 6) were measured using a sensitive fluorescence-based assay based on detection of CoA by 7-diethylamino-3-(4-maleimido-phenyl)-4-methylcoumarin, as described in Goncalves, V., et al., Analytical Biochemistry, 2012, 421, 342-344 and Goncalves, V., et al., J. Med. Chem, 2012, 55, 3578.

MRC5 cells = assay: Metabolic activity assay (MTS assay), MRC5; type: cell-based, human
Method: Example NMT inhibitors of the present invention were tested for activity in an in vitro metabolic activity assay using the human cell line MRC5. Comparative Examples 1, 2, 3, 4, 5 and 6 were also tested in the same metabolic activity assay. Compounds having activity in inhibiting metabolic activity in the assay are expected to be useful as agents for preventing and/or treating cancer, by virtue of being inhibitors of human NMT1 and/or NMT2.
MRC5 cells (obtained from Dr David Mann's group, Imperial College; cell type: fibroblasts cells which derive from normal lung tissue) were grown in DMEM media (supplemented with 10% FBS) and were seeded in a 96-well plate, 24 h prior to treatment. Cell suspensions were prepared by adjusting the cell density to the appropriate concentration (as stated in the Table 1 below) and 50 μL of the cell suspension was transferred to wells B-G in columns 2-11 of a 96-well plate.
100 μL of growth media (DMEM media) containing 0.2% DMSO was added to wells B-G in columns 2 and 11 as positive controls, and 100 μl of growth media containing Puromycin (3 μg/mL; final concentration in the plate 2 μg/mL) was added to wells B-G in column 3 as a negative control. Seven concentrations of NMT inhibitor stock solution were prepared for each Example (Example 1 and 2) and each Comparative Example (Comparative Examples 1, 2, 3, 4, 5 and 6) tested (same final percentage of DMSO, dilution factor=3 starting from 15 μM or 150 μM). 100 μL of inhibitor stock solution was added to wells B-G in columns 4-10 of a 96-well plate (final concentration of Example compound or Comparative Example compound in the plate starting from 10 μM or 100 μM; total volume in each well was 150 μL). The plate was incubated at 37° C. with 5% CO2 level.
After 72 h, 20 μL MTS reagent (Promega, prepared according to the supplier protocol) was added to each well of the 96-well plate. The plate was incubated at 37° C. for 2 h and the absorbance per well was measured at 490 nm with an EnVision plate reader. The average absorbance value of the negative control (Puromycin-treated cells) was subtracted from each value and the metabolic activity was calculated as a percentage relative to the positive control (DMSO-treated cells). EC50 values were calculated using GraphPad.

BL-41 cells = assay: CellTiter-Blue assay, BL-41; type: cell-based, human
Method: as §1, §2, §3, §4

Compound	EC50 (MDA MB 231 cells; Homo sapiens, MDA-MB-231, 72 h)	EC50 (LY 12318 cells; Homo sapiens)	IC50 (human NMT1 (HsNMT1))	EC50 (MRC5 cells; Homo sapiens, MRC5, 72 h)	EC50 (BL-41 cells; Homo sapiens, BL-41, 72 h)	EC50 (MDA MB 231 cells; 72 h)	EC50 (LY 12318 cells)	EC50 (MRC5 cells; 72 h)	EC50 (BL-41 cells; 72 h)
CNC(=O)c1nn(C)c(C)c1CCOc1cc(F)ccc1-c1ccc2ncc(CCN)n2c1 [Comparative Example 2, 4-(2-{2-[3-(2-aminoethyl)imidazo[1,2-a]pyridin-6-yl]-5-fluorophenoxy}ethyl)-N,1,5-trimethyl-1H-pyrazole-3-carboxamide]	237 nM	> 370 nM	~1 nM and 1 nM	> 6.8 µM	298 nM	–	–	–	–
CNCCc1cnc2ccc(-c3ccc(F)cc3OCCc3c(C)nn(C)c3C)cn12 [Comparative Example 3, [2-(6-{4-fluoro-2-[2-(1,3,5-trimethyl-1H-pyrazol-4-yl)ethoxy]phenyl}imidazo[1,2-a]pyridin-3-yl)ethyl](methyl)amine]	–	–	10.5 nM	5.4 µM	–	–	–	–	–
Cc1c(CCOc2cc(Cl)ccc2-c2ccc3ncc(CCN)n3c2)c(C(=O)N(C)C)nn1C [Example Compound 1, 4-(2-{2-[3-(2-aminoethyl)imidazo[1,2-a]pyridin-6-yl]-5-chlorophenoxy}ethyl)-N,N,1,5-tetramethyl-1H-pyrazole-3-carboxamide]	–	–	–	–	–	20 nM	27 nM	0.013 µM	14 nM
